In assay [1] the test system is A549 lung carcinoma cells. In words: Antiproliferative activity, crystal violet assay. It is filed as cell-based. Particulars: 72 h exposure, SD in parentheses, n = 3. As to the method: (§1) The antiproliferative potential of the gold–NHC complexes was determined in A549 lung carcinoma cells, MDA-MB-231 breast cancer cells, MCF-7 breast adenocarcinoma cells, and HT-29 colon carcinoma cells (Table 1). Vero E6 African green monkey kidney cells served as a reference cell line to check for possible tumour selectivity. Auranofin (AF) was used as an established reference drug.[15,17] […]
(§2) S2.2. Cytotoxicity and Anticancer Studies
(§3) Cell culture and cytotoxicity
(§4) Cell lines were sourced from DSMZ (German Collection of Microorganisms and Cell Cultures GmbH) and maintained through standard procedures in Dulbecco's Modified Eagle Medium (DMEM) supplemented with 10% fetal calf serum and 50 mg/L gentamycin. Antiproliferative effects were assessed using a well-established assay protocol. In brief, 100 μL volumes of A549 cells (13,243 cells per mL), HT-29 cells (14,657 cells per mL), MDA-MB-231 cells (6,613 cells per mL), or MCF-7 cells (6,917 cells per mL) were transferred into the wells of 96-well plates and incubated at 37°C/5% CO2 for 72 […]
(§5) Freshly prepared stock solutions of the compounds in DMSO were diluted with the respective cell culture medium to achieve graded concentrations (final concentration of DMSO: 0.1% v/v). After 72 hours (A549, HT-29) or 96 hours (MCF-7, MDA-MB-231) of exposure, the cell biomass was assessed through crystal violet staining, and the IC50 value was determined as the concentration causing 50% inhibition of cell proliferation compared to an untreated control. Results were calculated as the mean values of three independent experiments.

The subject of assay [2] is HT-29 colon carcinoma cells. As to the kind of experiment: Antiproliferative activity, crystal violet assay. It is filed as cell-based. Particulars: 72 h exposure, SD in parentheses, n = 3. As to the method:
as §1, §2, §3, §4, §5

The subject of assay [3] is MCF-7 breast adenocarcinoma cells. As to the kind of experiment: Antiproliferative activity, crystal violet assay. It is filed as cell-based. Particulars: 96 h exposure, SD in parentheses, n = 3. As to the method:
as §1, §2, §3, §4, §5

Assay [4] deals with MDA-MB-231 breast cancer cells. In words: Antiproliferative activity, crystal violet assay. Particulars: 96 h exposure, SD in parentheses, n = 3. Format: cell-based. As to the method: as §1, §2, §3, §4, §5
For assay [5], the system named is Vero E6 African green monkey kidney cells. As to the kind of experiment: Antiproliferative activity in non-tumour reference cell line. Format: cell-based. Particulars: Vero E6 non-tumour reference cell line; SD in parentheses, n = 3. As to the method:
as §1, §2, §3, §4, §5

The test system of assay [6] is Acinetobacter baumannii DSM30007. As to the kind of experiment: Antibacterial activity (MIC, curve fitting). Format: cell-based. Particulars: for MIC, A.b.: Table 2, Acinetobacter baumannii DSM30007, 18 h, 37 °C; for MIC, A. baumannii: Table S12, ± standard error of the mean. As to the method:
(§6) The antibacterial activity of all gold complexes was assessed against six pathogenic bacterial strains, including two Gram-positive species, i.e. Enterococcus faecium and methicillin-resistant Staphylococcus aureus (MRSA), and four Gram-negative species, i.e. Acinetobacter baumannii, Escherichia coli, Klebsiella pneumoniae, and Pseudomonas aeruginosa. Minimum inhibitory concentrations (MICs) were determined using a curve-fitting technique.
(§7) S2.1. Antibacterial Studies
(§8) Bacterial cultures were prepared by overnight aerobic incubation at 37 °C. Gram-negative strains were cultivated in Müller Hinton broth supplemented with 1% glucose at pH 7.2, while Gram-positive strains were grown in Trypticase soy yeast extract medium (TSY) with a composition of 30 g/l trypticase soy broth, 3 g/l yeast extract, and pH 7.2. The cultures were adjusted to an OD600 of 0.001, resulting in a final starting OD600 of 0.0005 for the subsequent tests. For testing, 25 μL of the prepared culture was combined with 25 μL of serially diluted test compounds in 384 well plates, following established protocols for different strains. Screening was performed at compound concentrations of 0.5, 5, and 50 µM, and for selected compounds, growth inhibition curves were recorded using DMSO stock solutions […]
(§9) Positive control compounds, namely linezolid (for MRSA strains), ciprofloxacin (for E. faecium and E. coli), and amikacin (for P. aeruginosa), were included. The maximum DMSO concentration in the assay […]
(§10) After an 18-hour incubation at 37 °C under moist conditions, the optical density at 600 nm was measured using a Fusion Universal Microplate Analyser (Perkin–Elmer, Waltham, USA). The minimum inhibitory concentration (MIC) values, representing the […]
(§11) fitting with Sigma Plot. The bacterial strains used included Gram-negative strains: Escherichia coli (DSM 1116), A. baumannii (DSM30007), K. pneumoniae (DSM111678), and Pseudomonas aeruginosa PA7 (DSM 24068); and Gram-positive strains: E. faecium (DSM20477) and Staphylococcus aureus MRSA

Assay [7] has as its system Enterococcus faecium DSM20477. In words: Antibacterial activity (MIC, curve fitting). Particulars: for MIC, E.f.: Table 2, Enterococcus faecium DSM20477, 18 h, 37 °C; for MIC, E. faecium: Table S12, ± standard error of the mean. It is filed as cell-based. As to the method: as §6, §7, §8, §9, §10, §11
The subject of assay [8] is Escherichia coli DSM 1116. As to the kind of experiment: Antibacterial activity (MIC, curve fitting). Format: cell-based. Particulars: for MIC, E.c.: Table 2, Escherichia coli DSM 1116, 18 h, 37 °C; for MIC, E. coli: Table S12, ± standard error of the mean. As to the method:
as §6, §7, §8, §9, §10, §11

In assay [9] the test system is Klebsiella pneumoniae DSM111678. As to the kind of experiment: Antibacterial activity (MIC, curve fitting). It is filed as cell-based. Particulars: for MIC, K.p.: Table 2, Klebsiella pneumoniae DSM111678, 18 h, 37 °C; for MIC, K. pneumoniae: Table S12, ± standard error of the mean. As to the method: as §6, §7, §8, §9, §10, §11
For assay [10], the system named is Pseudomonas aeruginosa DSM 24068. In words: Antibacterial activity (MIC, curve fitting). Format: cell-based. Particulars: for MIC, P.a.: Table 2, Pseudomonas aeruginosa DSM 24068, 18 h, 37 °C; for MIC, P. aeruginosa: Table S12, ± standard error of the mean. As to the method:
as §6, §7, §8, §9, §10, §11

The subject of assay [11] is methicillin-resistant Staphylococcus aureus DSM 11822. As to the kind of experiment: Antibacterial activity (MIC, curve fitting). Format: cell-based. As to the method:
as §6, §7, §8, §9, §10, §11

A further assay has as its target TrxR from E. coli (Escherichia coli, UniProt P0A9P4). As to the kind of experiment: Inhibition of isolated bacterial TrxR, DTNB-based assay. Format: biochemical. Particulars: for IC50: isolated E. coli TrxR, DTNB assay, ± standard deviation, n = 3. On the set-up: purchased Sigma-Aldrich. As to the method:
The inhibition of isolated TrxR from E. coli was determined for the selected monocarbene gold(I/III) complexes 2a–c and 4b–c using a DTNB-based assay (Table 3). […] The inhibition of bacterial TrxR for compound 2a was investigated in our previous report (Table 3).
S2.3. Inhibition of bacterial TrxR from E. coli
The TrxR (E. coli) inhibition assay was performed according to previously published procedures.[8] The assay is partly based on the procedure developed by Lu et al[9] and makes use of the reduction of DTNB (5,5′-dithiobis-(2-nitrobenzoic acid)). Solutions of E. coli TrxR (10.1 U/mL) and E. coli thioredoxin (Trx) (312 μg/mL) (both purchased from Sigma-Aldrich) were prepared in distilled water. Stock solutions of the test compounds (2 mM) were prepared in DMSO and serially diluted with TE buffer (Tris-HCl 50 mM, EDTA 1 mM, pH 7.5). 20 μL of these solutions or TE buffer without the test compounds (positive control) were mixed with the TrxR solution (10 μL), the Trx solution (10 μL) and 100 µl of NADPH (200 μM) in TE buffer in a well on a 96-well plate. As a blank control, 200 μM NADPH in TE buffer (100 μL) mixed with a DMSO / buffer mixture (40 μL) was used (final concentrations of DMSO: 0.5% v/v). The plate was incubated for 75 min at 25°C with moderate shaking. After incubation, 100 μL of a reaction mixture (TE buffer containing 200 μM NADPH and 5 mM DTNB) was added to each well to initiate the reaction. After thorough mixing, the formation of 5-TNB was monitored by a microplate reader at 405 nm in 35 s intervals (10 measurements). The values were corrected by subtraction of the blank solution absorption values. The increase in concentration of 5-TNB followed a linear trend (r2≥ 0.990) and the enzymatic activities were calculated as the gradients (increase in absorbance per second) thereof. […]
for each test compound, where the highest test compound concentration was used and the enzyme solution was replaced by TE buffer. The inhibition is presented as the mean IC50 values and standard deviations obtained in three independent experiments.
Table S13. Activity of TrxR from E. coli in presence of compounds at 0.5 µM (n = 2, n.d.= not

Where [12] appears, read: Table 2, MRSA DSM 11822, 18 h, 37 °C.
Setting [13] is: Table S12, ± standard error of the mean.

SMILES strings stand for the structures. Several values for one entry are separate records, joined by “and”; a condition that tells them apart may be missing. Equal values may be shown once.

Sequence of TrxR from E. coli (P0A9P4 2-321): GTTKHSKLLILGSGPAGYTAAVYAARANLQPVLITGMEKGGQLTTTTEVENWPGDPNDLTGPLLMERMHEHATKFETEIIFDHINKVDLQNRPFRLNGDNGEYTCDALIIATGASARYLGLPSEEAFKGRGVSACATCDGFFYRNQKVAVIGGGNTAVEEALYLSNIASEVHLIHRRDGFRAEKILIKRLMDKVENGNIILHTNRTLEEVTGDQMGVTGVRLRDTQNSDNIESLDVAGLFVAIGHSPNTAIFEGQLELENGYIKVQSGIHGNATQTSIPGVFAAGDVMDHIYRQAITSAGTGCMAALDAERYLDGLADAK

For orientation: IC50 means the concentration that inhibits the measured activity by half. For the compound `CCOC(=O)c1cn(C)[c]([Au-]([Cl])([Cl])[Cl])[n+]1C` [4c], the IC50 in assay [1] stood at 17.9 µM; in assay [2], 28.4 µM; in assay [3] it was 14.6 µM; in [4], 11.1 µM; in [5] it was 20.7 µM; against TrxR from E. coli, 0.381 ± 0.053 µM. Further, the “MIC, A.b.” value in [6] was 8 µM and 8 ± 1 µM. Moreover, the “MIC, A. baumannii” value in [6] came to 8.48 ± 1.33 µM. The “MIC, E.f.” value in assay [7] is 17 µM and 17 ± 0 µM. Moreover, the “MIC, E. faecium” value in [7] came to 16.97 ± 0 µM. For the same compound, in assay [8], the “MIC, E.c.” value is 34 µM and 34 ± 0 µM. For the same compound, in assay [8], the “MIC, E. coli” value was determined as 33.93 ± 0 µM. The “MIC, K.p.” value in assay [9] was 34 µM and 34 ± 5 µM. Besides, in [9], the “MIC, K. pneumoniae” value was 33.93 ± 5.33 µM. For the same compound, in [10], the “MIC, P.a.” value is over 100 µM. In [10], the “MIC, P. aeruginosa” value was over 100 µM. Also, the “MIC, MRSA” value was 17 µM and 17 ± 2 µM in [11] (setting [12]); 16.97 ± 2.67 µM in assay [11] (setting [13]). Further, the “TrxR activity, % of control” value on TrxR from E. coli (compounds at 0.5 µM, n = 2, Table S13) is 28.5 % of control.
For `CC(=O)OC[C@H]1O[C@@H]([S-])[C@H](OC(C)=O)[C@@H](OC(C)=O)[C@@H]1OC(C)=O.CCP(CC)CC.[Au+]` [AF, auranofin, reference compound], the IC50 turned out to be 3.53 µM in [1]; 4.32 µM in assay [2]; 1.89 µM in assay [3]; 0.8 µM in assay [4]; 2.4 µM in [5]; 0.21 ± 0.03 µM on TrxR from E. coli. The “MIC, A.b.” value in assay [6] amounted to 55 µM. The “MIC, A. baumannii” value in assay [6] was 55 µM. The “MIC, E.f.” value in assay [7] amounted to 0.3 µM. Besides, the “MIC, E. faecium” value in assay [7] was determined as 0.3 µM. The “MIC, E.c.” value in [8] came to 46 µM. For the same compound, the “MIC, E. coli” value in [8] is 46 µM. Also, in assay [9], the “MIC, K.p.” value worked out at 81 µM. Further, in [9], the “MIC, K. pneumoniae” value was 81 µM. Moreover, the “MIC, P.a.” value in [10] is over 100 µM. The “MIC, P. aeruginosa” value in assay [10] is over 100 µM. The “MIC, MRSA” value in assay [11] (setting [12]) and in assay [11] (setting [13]) was 0.4 µM each time.

For the origin of these results see PMC11342128, “Gold(I) and gold(III) carbene complexes from the marine betaine norzooanemonin: inhibition of thioredoxin reductase, antiproliferative and antimicrobial activity” (RSC Medicinal Chemistry, 2024).
